Series [1] addresses T1, Androgen receptor (Homo sapiens, UniProt P10275).
T1 sequence (P10275 whole entry): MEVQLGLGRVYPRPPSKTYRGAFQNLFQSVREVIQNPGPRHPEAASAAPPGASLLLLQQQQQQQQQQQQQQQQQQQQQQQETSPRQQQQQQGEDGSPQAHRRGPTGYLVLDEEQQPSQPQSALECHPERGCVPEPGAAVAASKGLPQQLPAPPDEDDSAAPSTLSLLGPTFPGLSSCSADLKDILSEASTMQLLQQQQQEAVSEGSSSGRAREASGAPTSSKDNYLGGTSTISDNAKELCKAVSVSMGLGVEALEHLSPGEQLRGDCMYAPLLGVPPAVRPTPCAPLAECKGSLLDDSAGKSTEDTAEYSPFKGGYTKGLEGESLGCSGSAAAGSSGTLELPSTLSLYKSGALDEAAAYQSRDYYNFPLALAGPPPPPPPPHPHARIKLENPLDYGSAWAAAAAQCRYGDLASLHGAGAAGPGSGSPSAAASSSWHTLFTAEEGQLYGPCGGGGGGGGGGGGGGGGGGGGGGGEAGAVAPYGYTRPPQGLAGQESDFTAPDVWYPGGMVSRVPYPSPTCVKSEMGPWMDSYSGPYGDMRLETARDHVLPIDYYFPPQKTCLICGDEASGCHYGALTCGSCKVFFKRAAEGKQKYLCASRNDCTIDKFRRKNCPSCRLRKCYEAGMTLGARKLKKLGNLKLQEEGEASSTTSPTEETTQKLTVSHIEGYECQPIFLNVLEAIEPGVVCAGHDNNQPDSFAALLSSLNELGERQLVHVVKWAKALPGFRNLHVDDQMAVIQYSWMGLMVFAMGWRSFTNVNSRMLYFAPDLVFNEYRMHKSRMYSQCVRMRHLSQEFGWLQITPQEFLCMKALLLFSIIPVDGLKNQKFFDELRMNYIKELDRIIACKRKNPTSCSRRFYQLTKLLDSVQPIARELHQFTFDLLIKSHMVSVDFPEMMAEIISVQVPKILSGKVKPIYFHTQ
As to the kind of experiment: Binding affinity to human Androgen receptor.

Another series deals with LNCaP. As to the kind of experiment: Antiproliferative activity against human LNCaP cells. Type of series: functional, cell-based.
The nature of series [2]: Oral bioavailability in mouse. Type of series: ADME, organism-based. The following applies: in vivo.
Series [3] deals with T2, Protein cereblon/Androgen receptor/Cullin-4A (Homo sapiens, UniProt P10275+Q96SW2+Q13619). As to the kind of experiment: Protac activity at CRBN/Cullin 4A/Androgen receptor in human VCaP cells assessed as Androgen receptor degradation. Type of series: cell-based.
Series [4] deals with T2, Protein cereblon/Androgen receptor/Cullin-4A. The experiment in a line: Protac activity at CRBN/Cullin 4A/Androgen receptor in human LNCaP cells assessed as Androgen receptor degradation. Type of series: cell-based.
Series [5] is described as follows: In vivo antagonist activity at Androgen receptor assessed as reduction in wax ester in golden hamster ear model. Type of series: functional, Cricetinae. Details: concentration or dose not given beside the values.
Series [6] concerns Rattus norvegicus. As to the kind of experiment: Anti-androgenic activity in testosterone-treated castrated rat assessed as reduction in prostate weight at 2 mg administered orally per day for 5 days. The following applies: route po, time 5 day. Set-up: Activity: scale not given: the % may be the effect or the level left. Type of series: functional.
The target of series [7] is T1, Androgen receptor. As to the kind of experiment: Binding affinity to Androgen receptor (unknown origin). The following applies: read-out: IC50.
The target in series [8] is Androgen receptor (Homo sapiens, UniProt P10275, T878A). The experiment in a line: Binding affinity to bicalutamide-resistant Androgen receptor T878A mutant (unknown origin).
Another series has as its system SC-3. The experiment in a line: Antiproliferative activity against mouse SC-3 cells. Type of series: functional, cell-based.
Series [9] can be described thus: Antiproliferative activity against refractory human prostate cancer cells. Type of series: functional, cell-based. To be noted: Prostate tumor cell line.
Series [10] concerns the target T1, Androgen receptor. As to the kind of experiment: Partial agonist activity at human Androgen receptor.
Series [11] addresses T3, Androgen receptor (Homo sapiens) (UniProt P10275).
T3 sequence (whole entry): T1 sequence (P10275 whole entry)
The experiment in a line: Agonist activity at androgen receptor (unknown origin) at 1 uM relative to control. To be noted: filed as agonist.

Series [12] deals with T1, Androgen receptor. The experiment in a line: Agonist activity at human Androgen receptor.
Series [13] has as its target T1, Androgen receptor. The experiment in a line: Antagonist activity at Androgen receptor in human MDA-kb2 cells. Type of series: cell-based.
The target of series [14] is T3, Androgen receptor (Homo sapiens). As to the kind of experiment: Induction of degradation of Androgen receptor in human LNCaP cells. Type of series: cell-based.
Series [15] concerns the target T1, Androgen receptor. The experiment in a line: Displacement of [3H]DHT from Androgen receptor expressed in human MDA-MB-453 cells. Type of series: cell-based.
Series [16] has as its target T1, Androgen receptor. As to the kind of experiment: Antagonist activity at Androgen receptor in human MDA-MB-453 cells measured by SEAP reporter gene assay. Type of series: cell-based.
For series [17], the target named is T1, Androgen receptor. The experiment in a line: Antagonist activity at Androgen receptor in human LNCaP cells measured by SEAP reporter gene assay. Type of series: cell-based.
The target of series [18] is T3, Androgen receptor (Homo sapiens). As to the kind of experiment: Induction of degradation of Androgen receptor (unknown origin) at 7.5 uM.
For series [19], the system named is Androgen receptor (Homo sapiens), P10275 [UNDEFINED MUTATION]. The experiment in a line: Induction of degradation of Androgen receptor splice variant 3 (unknown origin) at 7.5 uM.
In series [20] the target is T1, Androgen receptor. The experiment in a line: Agonist activity to human Androgen receptor in African green monkey COS-7 cells measured by luciferase reporter assay. Type of series: cell-based.
Series [21] concerns the target Androgen receptor (Mus musculus, UniProt P19091). The experiment in a line: Agonist activity at Androgen receptor (unknown origin) transfected in mouse C2C12 cells measured by luciferase reporter assay. Type of series: cell-based.
The test system of series [22] is Rattus norvegicus. The experiment in a line: Anti-androgenic activity in male Wistar rat assessed as decrease in ventral prostate weight at 10 mg/kg, po administered for 15 days. To be noted: time 15 day. Type of series: functional. Details: Activity: scale not given: the % may be the effect or the level left.

Molecules are shown by their SMILES. Where only a bound is given, the exact number is not on record here.

T2 sequence (Q96SW2 whole entry, one chain of several): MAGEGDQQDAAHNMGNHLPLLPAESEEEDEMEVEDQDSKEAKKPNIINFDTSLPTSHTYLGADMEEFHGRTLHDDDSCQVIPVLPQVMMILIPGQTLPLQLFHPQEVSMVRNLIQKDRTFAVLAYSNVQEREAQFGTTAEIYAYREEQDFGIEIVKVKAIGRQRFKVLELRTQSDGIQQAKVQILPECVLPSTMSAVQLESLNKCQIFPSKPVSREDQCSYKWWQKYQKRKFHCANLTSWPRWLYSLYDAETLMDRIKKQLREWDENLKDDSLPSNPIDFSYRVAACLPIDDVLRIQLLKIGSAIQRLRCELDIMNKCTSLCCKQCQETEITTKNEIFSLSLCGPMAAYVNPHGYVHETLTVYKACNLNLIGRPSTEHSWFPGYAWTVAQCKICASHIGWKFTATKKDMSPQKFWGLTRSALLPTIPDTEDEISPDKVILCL
T2 sequence (Q13619 whole entry, one chain of several): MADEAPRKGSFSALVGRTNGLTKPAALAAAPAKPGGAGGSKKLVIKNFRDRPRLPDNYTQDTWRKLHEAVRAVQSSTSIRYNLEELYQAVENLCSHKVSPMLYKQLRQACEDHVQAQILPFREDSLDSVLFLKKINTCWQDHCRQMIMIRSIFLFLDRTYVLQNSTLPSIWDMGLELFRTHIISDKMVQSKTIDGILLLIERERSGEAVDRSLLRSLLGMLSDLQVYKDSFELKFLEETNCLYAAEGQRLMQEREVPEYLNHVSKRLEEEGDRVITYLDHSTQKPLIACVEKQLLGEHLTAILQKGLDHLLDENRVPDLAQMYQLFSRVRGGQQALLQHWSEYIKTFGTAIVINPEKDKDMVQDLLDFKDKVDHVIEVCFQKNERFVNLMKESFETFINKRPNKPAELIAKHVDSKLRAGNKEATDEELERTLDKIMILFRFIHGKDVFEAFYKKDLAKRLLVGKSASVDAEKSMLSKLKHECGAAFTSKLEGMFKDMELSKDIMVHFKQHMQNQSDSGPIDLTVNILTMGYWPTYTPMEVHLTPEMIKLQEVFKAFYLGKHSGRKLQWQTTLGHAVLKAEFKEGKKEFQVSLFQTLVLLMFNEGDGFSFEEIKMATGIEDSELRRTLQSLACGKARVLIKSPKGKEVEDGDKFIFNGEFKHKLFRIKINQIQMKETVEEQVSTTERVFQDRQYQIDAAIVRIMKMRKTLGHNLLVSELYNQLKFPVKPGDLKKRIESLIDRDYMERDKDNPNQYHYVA
Chain of Androgen receptor (Mus musculus, UniProt P19091) (P19091 whole entry): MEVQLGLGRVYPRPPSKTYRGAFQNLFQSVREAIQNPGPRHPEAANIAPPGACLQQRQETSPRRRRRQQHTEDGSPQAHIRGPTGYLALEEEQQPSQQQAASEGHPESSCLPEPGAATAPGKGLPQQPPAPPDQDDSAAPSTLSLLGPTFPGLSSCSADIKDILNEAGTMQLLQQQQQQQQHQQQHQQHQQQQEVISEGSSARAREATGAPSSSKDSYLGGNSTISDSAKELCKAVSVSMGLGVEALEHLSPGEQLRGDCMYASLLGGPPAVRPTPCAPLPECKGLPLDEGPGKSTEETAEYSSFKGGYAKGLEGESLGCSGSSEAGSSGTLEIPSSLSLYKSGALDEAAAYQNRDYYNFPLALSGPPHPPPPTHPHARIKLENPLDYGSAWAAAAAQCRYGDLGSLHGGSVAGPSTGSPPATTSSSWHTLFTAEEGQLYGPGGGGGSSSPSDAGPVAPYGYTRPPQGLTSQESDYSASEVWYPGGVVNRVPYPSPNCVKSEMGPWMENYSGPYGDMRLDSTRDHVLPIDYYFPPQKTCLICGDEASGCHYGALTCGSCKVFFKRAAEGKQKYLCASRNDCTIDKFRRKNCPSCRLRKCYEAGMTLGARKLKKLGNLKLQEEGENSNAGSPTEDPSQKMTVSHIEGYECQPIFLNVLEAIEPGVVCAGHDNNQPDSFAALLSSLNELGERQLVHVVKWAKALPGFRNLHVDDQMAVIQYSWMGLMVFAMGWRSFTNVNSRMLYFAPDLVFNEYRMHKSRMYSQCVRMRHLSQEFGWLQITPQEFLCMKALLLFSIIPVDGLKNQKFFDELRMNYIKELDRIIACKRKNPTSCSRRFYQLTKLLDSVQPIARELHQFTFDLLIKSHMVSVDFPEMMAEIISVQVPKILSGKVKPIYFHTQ
Chain of Androgen receptor (Homo sapiens, UniProt P10275, T878A) (P10275 whole entry T878A): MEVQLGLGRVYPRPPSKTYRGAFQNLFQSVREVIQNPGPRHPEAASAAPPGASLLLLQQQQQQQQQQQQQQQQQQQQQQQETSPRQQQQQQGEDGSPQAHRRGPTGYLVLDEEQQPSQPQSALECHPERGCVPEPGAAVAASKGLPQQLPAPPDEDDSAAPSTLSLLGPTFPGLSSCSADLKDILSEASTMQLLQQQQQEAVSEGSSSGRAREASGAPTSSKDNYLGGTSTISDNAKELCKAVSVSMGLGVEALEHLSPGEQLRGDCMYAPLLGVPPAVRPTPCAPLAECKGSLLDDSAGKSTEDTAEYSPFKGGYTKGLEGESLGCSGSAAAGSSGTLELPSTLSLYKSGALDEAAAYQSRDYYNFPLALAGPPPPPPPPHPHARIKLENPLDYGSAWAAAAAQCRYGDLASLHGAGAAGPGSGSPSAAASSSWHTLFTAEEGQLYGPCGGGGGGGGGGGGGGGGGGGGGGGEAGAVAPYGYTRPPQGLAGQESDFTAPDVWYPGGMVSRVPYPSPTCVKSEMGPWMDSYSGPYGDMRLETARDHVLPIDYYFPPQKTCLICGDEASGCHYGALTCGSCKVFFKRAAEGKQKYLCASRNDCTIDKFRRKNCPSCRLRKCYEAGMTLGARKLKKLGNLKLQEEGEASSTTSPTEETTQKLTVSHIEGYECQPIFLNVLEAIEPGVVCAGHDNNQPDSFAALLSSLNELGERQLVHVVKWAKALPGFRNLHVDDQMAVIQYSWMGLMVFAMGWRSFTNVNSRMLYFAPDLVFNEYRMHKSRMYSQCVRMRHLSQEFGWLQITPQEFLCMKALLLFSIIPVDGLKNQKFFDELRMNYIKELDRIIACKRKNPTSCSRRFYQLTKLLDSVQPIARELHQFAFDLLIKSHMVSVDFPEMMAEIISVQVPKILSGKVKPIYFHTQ

`C[C@@H]1CC[C@H]([C@@H](O)C(F)(F)F)N1c1ccc2[nH]c(=O)cc(C(F)(F)F)c2c1` [LGD-2941] showed an inhibitory constant (Ki) on Androgen receptor [1] of 6.5 nM.

Consider `CC1(C)C(=O)N(c2ccc(C#N)c(Cl)c2)C(=S)N1CCCS(N)(=O)=O`, for which the IC50 in the series on LNCaP came out at 410 nM.

In series [2], `CC1(C)[C@H](NC(=O)c2ccc(N3CCN(CC4CCN(c5ccc6c(c5)C(=O)N(C5CCC(=O)NC5=O)C6=O)CC4)CC3)cc2)C(C)(C)[C@H]1Oc1ccc(C#N)c(Cl)c1` (some centres undefined) registered a bioavailability of 67%. Also, the half-maximal degradation concentration (DC50) was 0.28 nM in series [3] and 8.3 nM in series [4].

For `CC1(C)CN(Cc2ccccc2)C(=O)[C@@H]1Oc1ccc(C#N)c(C(F)(F)F)c1`, the Activity in series [5] is 78%.

On to `CC(O)(c1nc2cc(Cl)c(Cl)cc2[nH]1)C(F)(F)F` (centres undefined), for which the ID50 in the series on Rattus norvegicus [6] is 0.32 mg/day. Further, the Activity with Rattus norvegicus [6] (at 2 mg) is reported as 96%.

As to `CC(O)(COC(=O)c1ccccc1C(F)(F)F)c1cc2cc([N+](=O)[O-])c(C(F)(F)F)cc2[nH]1` (centres undefined), at Androgen receptor [7], the half-inhibitory concentration (IC50) turned out to be 140 nM.

In turn, `Cn1cc(N(Cc2ccccc2)c2ccc([N+](=O)[O-])cc2)cc1C(=O)N1CCCC1` came in with a Ki at Androgen receptor [8] of 6 nM. Moreover, the half-maximal inhibitory concentration (IC50) in the series on SC-3 came out at 440 nM.

Turning to `Cc1ccccc1Sc1ccc(C#N)cc1Cl`, the Activity in series [5] is given as more than 80%.

On Androgen receptor [1], `N#Cc1ccc(N2CCC[C@@H]2[C@@H](O)C(F)(F)F)cc1C(F)(F)F` [VK5211] yielded an inhibition constant Ki of 1 nM.

As for `N#Cc1ccc(-n2c(=O)n(Cc3ccccc3)c3ccccc32)cc1C(F)(F)F`, in series [9], the 50% inhibitory concentration (IC50) came to 170 nM.

With `N#Cc1ccc(N2C(=O)N[C@@](CO)(c3ccccc3)C2=O)cc1C(F)(F)F`, the IC50 on Androgen receptor [10] worked out at 13 nM.

`CC1(C)CN(CCC#N)C(=O)[C@@H]1Oc1ccc(C#N)c(C(F)(F)F)c1` returned an Activity in series [11] of 89%.

For `CC(C)(C)OC(=O)c1cccc2oc(=O)c3c(ccc4[nH]c(=O)cc(C(F)(F)F)c43)c12`, on Androgen receptor [1], the inhibitory constant (Ki) is 8.7 nM. In addition, the EC50 at Androgen receptor [12] is 1.1 nM.

As for `CC(c1ccccc1)N(C)c1ccc(C#N)c(C(F)(F)F)n1` (centres undefined), the IC50 at Androgen receptor [1] is 20 nM; against Androgen receptor [13], 45 nM. Also, the Activity in series [5] stood at 83%.

On to `C[C@]12COC(=O)C[C@@H]1CC[C@@H]1[C@@H]2CC[C@@]2(C)[C@H]1CC[C@]2(C)O` [OXANDROLONE], for which the affinity at Androgen receptor [1], expressed as Ki, was 62 nM.

With `CC1(C)C(=O)N(c2ccc(C#N)c(C(F)(F)F)c2)C(=S)N1CCCC(=O)NCCOCCOC(=O)CC12CC3CC(CC(C3)C1)C2`, the Activity in [14] is more than 50%.

With `CC(C)N1C[C@@]2(C)O[C@](C)(C1)[C@H]1C(=O)N(c3ccc(C#N)c(C(F)(F)F)c3)C(=O)[C@H]12`, the affinity on Androgen receptor [15], expressed as Ki, was 14 nM. Further, the IC50 worked out at 32 nM against Androgen receptor [16] and 125 nM on Androgen receptor [17].

Regarding `COc1ccc(/C=C/C(=O)/C=C(O)/C=C/c2ccc(OC)c(OC)c2)cc1OC`, the Activity in series [18] and in [19] was more than 80% each time.

In [11], `CC1(C)CN(CCC#N)C(=O)[C@@H]1Oc1ccc(C#N)c(Cl)c1` returned an Activity of 89%.

On to `Cc1c(N2CC[C@](C)(O)[C@@H]2C)ccc(C#N)c1Cl`, for which the IC50 at Androgen receptor [1] worked out at 1 nM. Besides, the concentration for a half-maximal effect (EC50) at Androgen receptor [20] was determined as 0.29 nM.

`CO[C@@H]1C(c2ccc(C#N)c(Cl)c2C)=NN2CC[C@H](O)[C@@H]12` had a concentration giving a half-maximal response (EC50) on Androgen receptor [21] of 0.5 nM.

Regarding `C[C@@H]1CN(c2ccc(C#N)c(C(F)(F)F)c2)[C@@H](C)CN1C(=O)Nc1ccc(C(F)(F)F)nc1`, the ED50 with Rattus norvegicus [22] (Rattus norvegicus, Wistar, 360 h) was found to be 2.2 mg/kg/day. Also, the Activity in the series with Rattus norvegicus [22] (dose 10 mg/kg) is 67%.

Values taken from ChEMBL document CHEMBL5137058, “Therapeutic Strategies to Target the Androgen Receptor” (J Med Chem, 2022).
